Target: IDH1^R132H (Homo sapiens, UniProt O75874, R132H)
Test: Affinity of IDH1 R132H for NADPH
Format: binding

Chain of IDH1^R132H (O75874 whole entry R132H): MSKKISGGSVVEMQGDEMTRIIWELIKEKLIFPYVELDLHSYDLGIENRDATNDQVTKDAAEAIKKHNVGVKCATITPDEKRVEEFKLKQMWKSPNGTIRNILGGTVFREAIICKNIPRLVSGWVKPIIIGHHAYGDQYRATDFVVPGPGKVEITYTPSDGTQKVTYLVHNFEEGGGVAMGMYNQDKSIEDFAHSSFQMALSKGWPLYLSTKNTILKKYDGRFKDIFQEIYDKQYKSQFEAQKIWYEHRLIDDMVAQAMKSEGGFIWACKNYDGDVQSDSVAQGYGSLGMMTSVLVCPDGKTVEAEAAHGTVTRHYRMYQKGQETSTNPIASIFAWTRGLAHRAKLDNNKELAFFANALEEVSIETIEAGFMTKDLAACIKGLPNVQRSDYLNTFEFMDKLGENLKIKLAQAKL

`NC(=O)C1=CN([C@@H]2O[C@H](COP(=O)(O)OP(=O)(O)OC[C@H]3O[C@@H](n4cnc5c(N)ncnc54)[C@H](OP(=O)(O)O)[C@@H]3O)[C@@H](O)[C@H]2O)C=CC1` [NADPH] showed a Kd of ~50 nM.

Reference: PMC11385386 (Nature Communications, 2024)
